# Measurements reported in US20210154210A1, “Ophthalmic Formulations and Uses Thereof” (priority 2018, published 2021).
# Tested on: corneal endothelial cells
# Experiment: Corneal endothelial cell counting by specular microscopy
# Assay type: in vivo, rabbits
# Settings: for higher cell density compared to negative control group / higher cell density compared to placebo group: 25 ng/mL (group B); for degeneration rate / effect on slowing down and stopping apoptosis and/or autophagy: 25 ng/mL
# From the text: All experiments were designed and carried out in a randomized, double blind manner using placebos. Rabbits were housed for one week prior to the study, fed on standard laboratory food and allowed free access to water in a room at standard temperature and humidity conditions in a 12-h light/12-h dark cycle.
# Counting Corneal Cell number:
# Any excess was discarded, and a fresh batch prepared for the next 15-days. Effects of the eye drop on corneal endothelium as well as cell numbers and shapes were observed by means of specular microscopy (NIDEK-CEM 530, Japan) at the end of months 0, 1, 3 and 6. Rabbits were euthanatized by an intravenous injection of Tanax (0.3 mL/kg). Vitreous (0.2 mL) was aspirated with a 25-gauge needle attached to a 5-mL disposable syringe, driven at 3.0 mm from the limbus, and guided toward the center of the eyeball, taking care to avoid bleeding when the needle was introduced (vitreous samples were stored at −80° C. until the analysis). Eye tissue was fixed with 4% formaldehyde and embedded in paraffin for histopathological assessment. The individual values for three replicates were determined and the mean values were reported.
# All analyses were carried out using GraphPad Prism 5.0 (GraphPad Software, San Diego, Calif., USA). Differences were considered to be significant at a level of P 0.001.
# [1] = compared to the negative control group
structure (smiles),measurement,setting,value
"CC(C)(O)[C@@H]1CC[C@](C)([C@H]2[C@@H](O)C[C@@]3(C)[C@@H]4C[C@H](O)[C@H]5C(C)(C)[C@@H](O)CC[C@@]56C[C@@]46CC[C@]23C)O1 [cycloastragenol, Cycloastragenol]",higher cell density compared to negative control group,month 1,about 4%
same,higher cell density compared to placebo group,month 1,about 4%
same,higher cell density compared to negative control group,month 3,~18%
same,higher cell density compared to placebo group,month 3,~18%
same,higher cell density compared to negative control group,month 6,~19%
same,higher cell density compared to placebo group,month 6,~20%
same,degeneration rate,[1],0%
same,effect on slowing down and stopping apoptosis and/or autophagy,[1],100%
same,degeneration rate,compared to the placebo group,0%
same,effect on slowing down and stopping apoptosis and/or autophagy,compared to the placebo group,100%
